# Target: T1, human OX2 receptor (Homo sapiens, UniProt O43614)
# T1 construct: expressed in transfected cells
# T1 sequence (O43614 1-444): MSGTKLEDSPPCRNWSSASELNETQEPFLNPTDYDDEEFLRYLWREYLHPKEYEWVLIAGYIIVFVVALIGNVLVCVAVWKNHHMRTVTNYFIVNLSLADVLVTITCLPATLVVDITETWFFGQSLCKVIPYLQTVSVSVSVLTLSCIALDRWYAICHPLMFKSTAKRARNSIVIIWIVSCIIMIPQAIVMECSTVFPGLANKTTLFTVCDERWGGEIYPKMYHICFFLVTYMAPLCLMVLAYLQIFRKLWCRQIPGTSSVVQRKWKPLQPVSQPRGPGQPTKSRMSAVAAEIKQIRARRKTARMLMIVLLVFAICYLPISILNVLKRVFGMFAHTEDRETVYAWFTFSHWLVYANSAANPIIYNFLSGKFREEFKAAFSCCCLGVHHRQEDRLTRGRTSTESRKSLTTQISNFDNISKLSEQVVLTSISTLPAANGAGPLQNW
# Experiment: Measurement of orexin type 2 receptor agonist activity (calcium fluorescence, Fluo-4, FDSS)
# Assay type: cell-based
# Settings: 3 uM test compound; CHO cells expressing human OX2 receptor; DMSO = 0%, 10 nM orexin A (human) = 100%
# Method in brief: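 Agonist activity (%) was normalised to the response to 10 nM final human orexin A (100%) and to the DMSO vehicle (0%). The response was measured as the Fluo-4 calcium signal, read kinetically over 1 min 40 s after compound addition to Fluo-4/probenecid-loaded stable CHO-K1 clones expressing human OX2 (aa 1-444).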
row,SMILES,"OX2R agonist activity (3 uM, %)"
1,"CCS(=O)(=O)N[C@H]1C[C@H]2CN(c3noc4cccc(-c5c(F)ccc(F)c5F)c34)C(=O)N2C1 [Example 21, N-{(6S,7aS)-3-oxo-2-[4-(2,3,6-trifluorophenyl)-1,2-benzoxazol-3-yl]hexahydro-1H-pyrrolo[1,2-c]imidazol-6-yl}ethanesulfonamide]",81%
2,"CCS(=O)(=O)NC1Cn2c(cn(-c3noc4cc(F)cc(-c5c(F)cc(F)cc5F)c34)c2=O)CC1(F)F (single isomer, unassigned) [Example 240, N-{(6R*)-7,7-difluoro-2-[6-fluoro-4-(2,4,6-trifluorophenyl)-1,2-benzoxazol-3-yl]-3-oxo-2,3,5,6,7,8-hexahydroimidazo[1,5-a]pyridin-6-yl}ethanesulfonamide]",106%
3,"O=c1n(-c2noc3cc(F)cc(-c4c(F)cccc4F)c23)cc2n1C[C@@H](NS(=O)(=O)CF)C2(F)F [Example 283, N-{(6R)-2-[4-(2,6-difluorophenyl)-6-fluoro-1,2-benzoxazol-3-yl]-7,7-difluoro-3-oxo-2,5,6,7-tetrahydro-3H-pyrrolo[1,2-c]imidazol-6-yl}-1-fluoromethanesulfonamide]",107%
4,"CS(=O)(=O)N[C@@H]1CC[C@H]2CN(c3noc4cccc(-c5c(F)cccc5F)c34)C(=O)N2C1 (relative stereo) [Example 63, rel-N-{(6R, 8aS)-2-[4-(2,6-difluorophenyl)-1,2-benzoxazol-3-yl]-3-oxooctahydroimidazo[1,5-a]pyridin-6-yl}methanesulfonamide]",107%
5,"CCS(=O)(=O)N[C@@H]1Cn2c(cn(-c3noc4cc(Cl)c(F)c(-c5c(F)cc(F)cc5F)c34)c2=O)C1(F)F [Example 94, N-{(6R)-2-[6-chloro-5-fluoro-4-(2,4,6-trifluorophenyl)-1,2-benzoxazol-3-yl]-7,7-difluoro-3-oxo-2,5,6,7-tetrahydro-3H-pyrrolo[1,2-c]imidazol-6-yl}ethanesulfonamide]",106%
6,"CS(=O)(=O)N[C@@H]1CN2C(=O)N(c3noc4cc(Cl)cc(-c5c(F)cccc5F)c34)CC[C@@H]2C1(F)F [Example 259, N-{(4aR,6R)-2-[6-chloro-4-(2,6-difluorophenyl)-1,2-benzoxazol-3-yl]-5,5-difluoro-1-oxooctahydropyrrolo[1,2-c]pyrimidin-6-yl}methanesulfonamide]",96%
7,"CS(=O)(=O)N[C@@H]1Cn2c(cn(-c3noc4cc(Cl)c(F)c(-c5c(F)cc(F)cc5F)c34)c2=O)C1(F)F [Example 106, N-{(6R)-2-[6-chloro-5-fluoro-4-(2,4,6-trifluorophenyl)-1,2-benzoxazol-3-yl]-7,7-difluoro-3-oxo-2,5,6,7-tetrahydro-3H-pyrrolo[1,2-c]imidazol-6-yl}methanesulfonamide]",103%
8,"CCS(=O)(=O)N[C@@H]1CN2C(=O)N(c3noc4cc(OC(F)F)cc(-c5c(F)cccc5F)c34)CC[C@@H]2C1(F)F [Example 255, N-{(4aR,6R)-2-[6-(difluoromethoxy)-4-(2,6-difluorophenyl)-1,2-benzoxazol-3-yl]-5,5-difluoro-1-oxooctahydropyrrolo[1,2-c]pyrimidin-6-yl}ethanesulfonamide]",107%
9,"CCS(=O)(=O)NC1Cn2cc(-c3noc4cccc(-c5c(F)cccc5F)c34)c(=O)n2C1 (single isomer, unassigned) [Example 339, N-{(2R*)-6-[4-(2,6-difluorophenyl)-1,2-benzoxazol-3-yl]-5-oxo-2,3-dihydro-1H,5H-pyrazolo[1,2-a]pyrazol-2-yl}ethanesulfonamide]",96%
10,"CCOc1cc(-c2c(F)cccc2F)c2c(N3CC[C@H]4N(C[C@@H](NS(=O)(=O)C5CC5)C4(F)F)C3=O)noc2c1 [Example 300, N-{(4aR,6R)-2-[4-(2,6-difluorophenyl)-6-ethoxy-1,2-benzoxazol-3-yl]-5,5-difluoro-1-oxooctahydropyrrolo[1,2-c]pyrimidin-6-yl}cyclopropanesulfonamide]",105%
11,"CS(=O)(=O)N[C@@H]1CN2C(=O)N(c3noc4ccc(F)c(-c5c(F)cc(F)cc5F)c34)CC[C@@H]2C1(F)F [Example 241, N-{(4aR,6R)-5,5-difluoro-2-[5-fluoro-4-(2,4,6-trifluorophenyl)-1,2-benzoxazol-3-yl]-1-oxooctahydropyrrolo[1,2-c]pyrimidin-6-yl}methanesulfonamide]",100%
12,"Cc1cc(-c2c(F)cccc2F)c2c(N3C[C@H]4N(C[C@@H](NS(C)(=O)=O)C4(F)F)C3=O)noc2n1 [Example 164, N-{(6R,7aR)-2-[4-(2,6-difluorophenyl)-6-methyl[1,2]oxazolo[5,4-b]pyridin-3-yl]-7,7-difluoro-3-oxohexahydro-1H-pyrrolo[1,2-c]imidazol-6-yl}methanesulfonamide]",108%
13,"CCOc1cc(-c2c(F)cc(F)cc2F)c2c(-n3cc4n(c3=O)C[C@@H](NS(C)(=O)=O)C4(F)F)noc2c1 [Example 189, N-{(6R)-2-[6-ethoxy-4-(2,4,6-trifluorophenyl)-1,2-benzoxazol-3-yl]-7,7-difluoro-3-oxo-2,5,6,7-tetrahydro-3H-pyrrolo[1,2-c]imidazol-6-yl}methanesulfonamide]",103%
14,"CCS(=O)(=O)N[C@@H]1Cn2c(cn(-c3noc4cc(F)cc(-c5c(F)cc(F)cc5F)c34)c2=O)C1(F)F [Example 116, N-{(6R)-7,7-difluoro-2-[6-fluoro-4-(2,4,6-trifluorophenyl)-1,2-benzoxazol-3-yl]-3-oxo-2,5,6,7-tetrahydro-3H-pyrrolo[1,2-c]imidazol-6-yl}ethanesulfonamide]",93%
15,"CCS(=O)(=O)N[C@@H]1CN2C(=O)N(c3noc4ccc(F)c(-c5c(F)cc(F)cc5F)c34)CC[C@@H]2C1(F)F [Example 204, N-{(4aR,6R)-5,5-difluoro-2-[5-fluoro-4-(2,4,6-trifluorophenyl)-1,2-benzoxazol-3-yl]-1-oxooctahydropyrrolo[1,2-c]pyrimidin-6-yl}ethanesulfonamide]",109%
16,"CS(=O)(=O)N[C@@H]1CN2C(=O)N(c3noc4cc(Cl)cc(-c5c(F)cccc5F)c34)C[C@@H]2C1(F)F [Example 87, N-{(6R,7aR)-2-[6-chloro-4-(2,6-difluorophenyl)-1,2-benzoxazol-3-yl]-7,7-difluoro-3-oxohexahydro-1H-pyrrolo[1,2-c]imidazol-6-yl}methanesulfonamide]",91%
17,"CCS(=O)(=O)N[C@@H]1CN2C(=O)N(c3noc4cc(F)cc(-c5c(F)cc(F)cc5F)c34)C[C@@H]2C1(F)F [Example 124, N-{(6R,7aR)-7,7-Difluoro-2-[6-fluoro-4-(2,4,6-trifluorophenyl)-1,2-benzoxazol-3-yl]-3-oxohexahydro-1H-pyrrolo[1,2-c]imidazol-6-yl}ethanesulfonamide]",101%
18,"CS(=O)(=O)N[C@@H]1CN2C(=O)N(c3noc4cc(Cl)cc(-c5c(F)cc(F)cc5F)c34)C[C@@H]2C1(F)F [Example 25, N-{(6R,7aR)-2-[6-chloro-4-(2,4,6-trifluorophenyl)-1,2-benzoxazol-3-yl]-7,7-difluoro-3-oxohexahydro-1H-pyrrolo[1,2-c]imidazol-6-yl}methanesulfonamide]",96%
19,"CCS(=O)(=O)N[C@@H]1CN2C(=O)N(c3noc4ccc(F)c(-c5c(F)cccc5F)c34)C[C@@H]2C1(F)F [Example 7, N-{(6R,7aR)-2-[4-(2,6-difluorophenyl)-5-fluoro-1,2-benzoxazol-3-yl]-7,7-difluoro-3-oxohexahydro-1H-pyrrolo[1,2-c]imidazol-6-yl}ethanesulfonamide]",105%
20,"CS(=O)(=O)N[C@H]1C[C@H]2CN(c3noc4cccc(-c5c(F)cccc5F)c34)C(=O)[C@H]2C1 (relative stereo) [Example 338, rel-N-{(3aR,5S,6aS)-2-[4-(2,6-difluorophenyl)-1,2-benzoxazol-3-yl]-1-oxooctahydrocyclopenta[c]pyrrol-5-yl}methanesulfonamide]",100%
21,"CS(=O)(=O)N[C@@H]1Cn2c(cn(-c3noc4cc(Cl)cc(-c5c(F)cccc5F)c34)c2=O)C1(F)F [Example 73, N-{(6R)-2-[6-chloro-4-(2,6-difluorophenyl)-1,2-benzoxazol-3-yl]-7,7-difluoro-3-oxo-2,5,6,7-tetrahydro-3H-pyrrolo[1,2-c]imidazol-6-yl}methanesulfonamide]",105%
22,"CCS(=O)(=O)N[C@@H]1CN2C(=O)N(c3noc4nc(OC)cc(-c5c(F)cc(F)cc5F)c34)CC[C@@H]2C1(F)F [Example 315, N-{(4aR,6R)-5,5-difluoro-2-[6-methoxy-4-(2,4,6-trifluorophenyl)[1,2]oxazolo[5,4-b]pyridin-3-yl]-1-oxooctahydropyrrolo[1,2-c]pyrimidin-6-yl}ethanesulfonamide]",105%
